Like-named read-outs stand apart in the source and are kept apart here. Numbered stars: 1 amine (or outer) side, 2 acyl side, 3 side chain; on linkers, the order of the positions; unused ones are H or OH. Bridge positions count the residues as written; N and C are the ends. Square brackets hold non-standard residues; d marks the D form. Peptide text beside a SMILES is read from it. Trp(βS-Me,7-OMe) = COc1cccc2c([C@H](C)[C@H](N)C(=O)O)c[nH]c12; Morpholine(3S-CO,6,6-Me2) = CC1(C)CN[C@H](C(=O)O)CO1; Trp(7-Cl) = N[C@@H](Cc1c[nH]c2c(Cl)cccc12)C(=O)O; Phe(4-CONH2) = NC(=O)c1ccc(C[C@H](N)C(=O)O)cc1; Phe(4-COOH) = N[C@@H](Cc1ccc(C(=O)O)cc1)C(=O)O; Trp(7-aza) = N[C@@H](Cc1c[nH]c2ncccc12)C(=O)O; Phe(4-CH2NH2) = NCc1ccc(C[C@H](N)C(=O)O)cc1; Pip(5R-OH) = O=C(O)[C@@H]1CC[C@@H](O)CN1; X1 = O=C([C@@H]1CC[C@H](N[*:1])C1)[*:2]; Pip(4-aza) = O=C(O)[C@@H]1CNCCN1; 4Pal = N[C@@H](Cc1ccncc1)C(=O)O; NMeE = CN[C@@H](CCC(=O)O)C(=O)O; dHyp = O=C(O)[C@H]1C[C@H](O)CN1; NEtAla = CCN[C@@H](C)C(=O)O; αMeS = C[C@](N)(CO)C(=O)O; Nle = CCCC[C@H](N)C(=O)O; Sar = CNCC(=O)O
Assays:
human TNFR2 ECD protein = molecular target: T1, human TNFR2 ECD protein (Homo sapiens, UniProt P20333); experiment: SPR off-target binding (selectivity) to human TNFR2 ECD
T1 construct: HRV 3C protease cleavage site (C); 6His (C, cleaved yes); made in house; host or cells: Sf21 insect cells (baculovirus), secreted
T1 sequence (P20333 23-257): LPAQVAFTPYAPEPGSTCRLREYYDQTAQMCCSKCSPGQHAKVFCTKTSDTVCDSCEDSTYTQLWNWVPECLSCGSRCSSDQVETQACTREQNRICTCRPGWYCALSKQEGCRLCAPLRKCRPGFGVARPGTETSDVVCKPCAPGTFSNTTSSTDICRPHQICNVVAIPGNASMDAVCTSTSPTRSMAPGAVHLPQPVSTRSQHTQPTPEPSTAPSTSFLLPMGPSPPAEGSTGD
Summary of the method: (§1)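 Peptides are tested against captured biotin-tagged human TNFR1 ECD, with parallel TNFR2 ECD binding to check selectivity. Buffer: 10 mM HEPES pH 7.4, 150 mM NaCl, 3 mM EDTA, 0.05% P20, 2% DMSO.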

[1] = molecular target: T2, TNFα-induced NF-κB signal transduction pathway (TNFR1 signaling) in THP-1 cells (Homo sapiens, UniProt P19438); experiment: THP-1 Lucia NF-κB reporter cell assay, inhibition of TNFα-induced NF-κB signaling; format: cell-based; conditions: THP-1 NF-κB Lucia reporter cells, 10 ng/mL TNFα, 16-18 h, secreted luciferase; read-out: THP-1 IC50
T2 sequence (P19438 30-455): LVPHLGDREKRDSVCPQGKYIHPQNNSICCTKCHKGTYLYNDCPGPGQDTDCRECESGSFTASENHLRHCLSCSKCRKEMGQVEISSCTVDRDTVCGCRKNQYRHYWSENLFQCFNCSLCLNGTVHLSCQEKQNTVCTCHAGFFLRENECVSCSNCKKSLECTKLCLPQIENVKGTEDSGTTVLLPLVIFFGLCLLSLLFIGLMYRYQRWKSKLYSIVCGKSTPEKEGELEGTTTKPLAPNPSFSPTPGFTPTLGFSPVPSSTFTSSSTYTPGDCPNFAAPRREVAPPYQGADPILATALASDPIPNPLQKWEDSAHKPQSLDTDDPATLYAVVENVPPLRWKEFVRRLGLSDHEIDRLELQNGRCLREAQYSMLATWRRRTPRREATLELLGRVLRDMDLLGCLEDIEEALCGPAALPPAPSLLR
Summary of the method: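 Macrocyclic peptides were preincubated 1 h at 37 °C with THP-1 NF-κB-Lucia reporter cells (20,000 cells/well) in antibiotic-free RPMI 1640/10% FBS, then stimulated with 10 ng/mL human TNFα overnight (16-18 h). Secreted luciferase in supernatant was read by luminescence; IC50 from 4-parameter logistic fits.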

[2] = molecular target: T3, human TNFR1 extracellular domain (ECD) protein (Homo sapiens, UniProt P19438); experiment: SPR binding affinity to captured human TNFR1 ECD
T3 construct: HRV 3C protease cleavage site (C); 6His (C, cleaved yes); made in house; host or cells: Sf21 insect cells (baculovirus), secreted
T3 sequence (P19438 30-211): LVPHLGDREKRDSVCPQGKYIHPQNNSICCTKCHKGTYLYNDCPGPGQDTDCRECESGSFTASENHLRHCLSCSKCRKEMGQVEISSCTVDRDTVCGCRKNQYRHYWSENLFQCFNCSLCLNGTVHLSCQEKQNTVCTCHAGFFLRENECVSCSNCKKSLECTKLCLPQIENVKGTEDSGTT
Summary of the method: as §1

[3] = biotinylated human TNFR2 ECD on streptavidin chip, read-out: SPR hTNFR2 KD
[4] = biotinylated human TNFR1 ECD on streptavidin chip, from kon and koff, read-out: SPR hTNFR1 KD

SMILES | Kd (human TNFR2 ECD protein) | IC50 [1] | Kd [2] | Kd (human TNFR2 ECD protein; [3]) | Kd [2, 4]
CCCC[C@@H]1NC(=O)CSC[C@@H](C(N)=O)NC(=O)[C@H]([C@@H](C)c2c[nH]c3c(OC)cccc23)NC(=O)CN(C)C(=O)[C@H](Cc2ccc(O)cc2)NC(=O)[C@H](Cc2ccc(C(=O)O)cc2)NC(=O)[C@](C)(CO)NC(=O)[C@H](Cc2c[nH]c3c(Cl)cccc23)NC(=O)[C@H](Cc2ccncc2)NC(=O)[C@H](CC(N)=O)NC(=O)[C@H](CCC(=O)O)N(C)C(=O)[C@H](Cc2c[nH]c3ncccc23)NC(=O)[C@H](C)N(CC)C(=O)[C@H](Cc2ccncc2)NC1=O [SEQ ID NO. 38] ({CH2CO}-[Nle][4Pal][NEtAla][Trp(7-aza)][NMeE]N[4Pal][Trp(7-Cl)][αMeS][Phe(4-COOH)]Y[Sar][Trp(βS-Me,7-OMe)]C-NH2; thioether N-14) | > 1000 nM | 3.1 nM | 0.34 nM | – | –
CCCC[C@@H]1NC(=O)[C@@H]2CC[C@@H](C2)NC(=O)[C@H]([C@@H](C)c2c[nH]c3c(OC)cccc23)NC(=O)CN(C)C(=O)[C@H](Cc2ccc(CN)cc2)NC(=O)[C@H](Cc2ccc(C(=O)O)cc2)NC(=O)[C@](C)(CO)NC(=O)[C@H](Cc2c[nH]c3c(Cl)cccc23)NC(=O)[C@H](Cc2ccncc2)NC(=O)[C@H](CC(N)=O)NC(=O)[C@H](CCC(=O)O)N(C)C(=O)[C@H](Cc2c[nH]c3ccccc23)NC(=O)[C@@H]2CNCCN2C(=O)[C@H](Cc2ccncc2)NC1=O [SEQ ID NO. 269] (cyclo([4Pal][Trp(7-Cl)][αMeS][Phe(4-COOH)][Phe(4-CH2NH2)][Sar][Trp(βS-Me,7-OMe)][X1][Nle][4Pal][Pip(4-aza)]W[NMeE]N)) | > 1000 nM | 1 nM | 0.1 nM | – | –
CCCC[C@@H]1NC(=O)[C@@H]2CC[C@@H](C2)NC(=O)[C@H]([C@@H](C)c2c[nH]c3c(OC)cccc23)NC(=O)CN(C)C(=O)[C@H](Cc2ccc(C(=O)O)cc2)NC(=O)[C@H](Cc2ccc(C(N)=O)cc2)NC(=O)[C@](C)(CO)NC(=O)[C@H](Cc2c[nH]c3c(Cl)cccc23)NC(=O)[C@H](Cc2ccncc2)NC(=O)[C@H](CC(N)=O)NC(=O)[C@H]2C[C@H](O)CN2C(=O)[C@H](Cc2c[nH]c3ccccc23)NC(=O)[C@@H]2CC[C@@H](O)CN2C(=O)[C@H](Cc2ccncc2)NC1=O [SEQ ID NO. 53] (cyclo([4Pal][Trp(7-Cl)][αMeS][Phe(4-CONH2)][Phe(4-COOH)][Sar][Trp(βS-Me,7-OMe)][X1][Nle][4Pal][Pip(5R-OH)]W[dHyp]N)) | – | 0.6 nM | – | > 1000 nM | 0.02 nM
CCCC[C@@H]1NC(=O)CSC[C@@H](C(N)=O)NC(=O)[C@H]([C@@H](C)c2c[nH]c3c(OC)cccc23)NC(=O)CN(C)C(=O)[C@H](Cc2ccc(O)cc2)NC(=O)[C@H](Cc2ccc(C(=O)O)cc2)NC(=O)[C@](C)(CO)NC(=O)[C@H](Cc2c[nH]c3c(Cl)cccc23)NC(=O)[C@H](Cc2ccncc2)NC(=O)[C@H](CC(N)=O)NC(=O)[C@H](C)N(CC)C(=O)[C@H](Cc2c[nH]c3ccccc23)NC(=O)[C@@H]2COC(C)(C)CN2C(=O)[C@H](Cc2ccncc2)NC1=O [SEQ ID NO. 183] ({CH2CO}-[Nle][4Pal][Morpholine(3S-CO,6,6-Me2)]W[NEtAla]N[4Pal][Trp(7-Cl)][αMeS][Phe(4-COOH)]Y[Sar][Trp(βS-Me,7-OMe)]C-NH2; thioether N-14) | – | 2.8 nM | – | > 1000 nM | 0.1 nM
